# “Also recorded” adds a separate entry of the source. Like-named read-outs stand apart in the source and are kept apart here.
# Key:
# [1] = tested on: HEI-OC1 cells
# Description: FIG. 9. […] The data were normalized to the number of cells in the negative control (C0H0).
# (§1) (See FIG. 9). […] (See FIG. 9). […] (See FIG. 9).
# [2] = tested on: SIRT3, Caspase 3, PARP in HEI-OC1 cells; assay: Western blot of SIRT3 and apoptosis-related proteins in HEI-OC1 cells; type: cell-based, mouse
# Description: FIG. 9. […] (A) C: cisplatin; H: HNK. […] Cisplatin and honokiol were added simultaneously.
# as §1
# [3] = tested on: prostate cancer cells (C4-2B); assay: Survival of prostate cancer cells with cisplatin and honokiol; type: cell-based
# Description: (§2) FIG. 10. […] C: cisplatin; H: honokiol. […] Each treatment was repeated in triplets. The data were normalized by the number of untreated control (C0H0).
# (§3) Because the role of SIRT3 may be different in different cancers, we selected three (3) different cancer cells for testing: prostate cancer cells, cervical cancer cells, and colon cancer cells. (See FIG. 10). Cisplatin was administered to the cancer cell lines with honokiol.
# [4] = tested on: cervical cancer cells; assay: Survival of cervical cancer cells with cisplatin and honokiol; type: cell-based
# Description: as §2, §3
# [5] = tested on: colon cancer cells; assay: Survival of colon cancer cells with cisplatin and honokiol; type: cell-based
# Description: as §2, §3
# [6] = tested on: mice; assay: Auditory Brainstem Response (ABR) threshold shift in cisplatin-treated mice; type: in vivo
# Description: Average=256. The error bars of all data points are standard deviations.
# [7] = tested on: outer hair cell (OHC) function; type: in vivo, mice
# Description: FIG. 12A-12E. HNK protection against cisplatin-induced changes of DPOAE amplitude. […] The DPOAE shift, normalized to Day 0, of all the groups are plotted in (FIG. 12B to FIG. 12E). […] The results of the 2 animals in Cis 15 mg/kg group on Day 14 were both plotted in (FIG. 12B) as the dashed lines and open circles. […].
# Distortion product oto-acoustic emissions (DPOAEs), which are an indication of outer hair cell (OHC) function, were measured in a separate series of experiments to estimate OHC protection by honokiol (HNK). (See FIG. 12A-12E). […] (See FIGS. 12D and 12E). After pre-treatment with HNK at a dosage of 10 mg/kg, the DPOAE shift was observed only at frequencies of 27 kHz and higher with a much smaller amplitude. (See FIG. 12D).
# [8] = tested on: outer hair cells (OHC); assay: Immunofluorescent histochemistry and confocal imaging of cochlear whole mount; type: in vivo, mice
# Description: FIG. 13. Confocal images of the immunostaining (merged) of cochleae treated with Cis 15 (A) and Cis 15+HNK 20 (B) mg/kg, under 20× objectives.
# FIG. 14. High-resolution confocal images (60× […]) of cochleae treated with Cis 15 (Left) and Cis 15+HNK 20 (Right), taken at the locations marked by white squares in FIGS. 13A and B, respectively. The white arrows indicate the nuclei of the remaining OHCs and the hollow arrows indicate missing OHCs. Note the panels for hair bundles (phalloidin staining) might be off focus and are only for indicating the correct position of the bodies and nuclei of the OHCs.
# Immunofluorescent histochemistry (IFHC) of a cochlear whole mount was performed after the physiological studies described above using prestin antibody (for outer hair cells (OHC)), phalloidin (for hair bundle) and 4′,6-diamidino-2-phenylindole (DAPI) (for nuclei). […] (See FIG. 14A). HC loss can be indicated by the scarcity of remaining nuclei (white arrows).
# [9] = Weight loss and animal survival in cisplatin-treated mice; type: in vivo
# Description: (See FIG. 15). […] (See FIG. 15). […] (See FIG. 15A). […] (See FIG. 15B).
# [10] = literature statement, cited from earlier work
# [11] = honokiol co-administered with cisplatin
# [12] = cisplatin with honokiol pre-treatment
smiles,measurement,setting,value
"C=CCc1ccc(O)c(-c2ccc(O)c(CC=C)c2)c1 [honokiol, 2-(4-hydroxy-3-prop-2-enyl-phenyl)-4-prop-2-enyl-phenol]",cell toxicity,[1],no cell toxicity
same,HEI-OC1 apoptosis induced by cisplatin,"[1]; 10 μM HNK, 50 μM cisplatin, 24 hours, preliminary study",completely prevent
same,protection against high dose cisplatin ototoxicity,"[1]; HNK 10 μM, cisplatin 50 μM",~100%
same,protection of HEI-OC1 cells against cisplatin-induced cell loss,"[1]; honokiol 5 μM or 10 μM, cisplatin 50 μM or 100 μM",protect
same,SIRT3 expression level,"[2]; HEI-OC1, HNK with cisplatin, 24 hours after cisplatin treatment, listed as HNK",increased; also recorded: elevated
same,DNA damage,"[2]; HEI-OC1, cisplatin in the presence of HNK, pilot studies",diminished
same,cleavage of poly ADP ribose polymerase (PARP),"[2]; HEI-OC1, honokiol",decrease
same,expression of Caspase 3,"[2]; HEI-OC1, honokiol",decrease
same,expression of SIRT3,"[2]; HEI-OC1, increasing concentrations of honokiol",increase
same,expression of early apoptosis mark caspase-3,"[2]; HEI-OC1 co-treated with HNK and cisplatin versus cisplatin alone, pilot studies",higher in some cells
same,prostate cancer cell (C4-2B) death from cisplatin treatment,"[3]; HNK up to 25 μM, 50 μM cisplatin, preliminary data",did not prevent
same,protection of prostate cancer cells from the toxicity of cisplatin,[3]; [11],not observed to protect
same,effect with cisplatin on cervical cancer cells,"[4]; honokiol 25 μM, cisplatin 50 μM (C50H25)",synergistic effect
same,protection of cervical cancer cells from the toxicity of cisplatin,[4]; [11],not observed to protect
same,effect with cisplatin on colon cancer cells,"[5]; honokiol 10 μM or 25 μM, cisplatin 50 μM",synergistic effect
same,protection of colon cancer cells from the toxicity of cisplatin,[5]; [11],not observed to protect
same,TS in tonal ABR at the highest frequency (32 kHz),[6]; HNK 10 mg/kg and cisplatin 15 mg/kg,significant TS
same,TS at other frequencies and dose combinations,"[6]; HNK 10-20 mg/kg, cisplatin 15-20 mg/kg",No further significant TS
same,ABR TS induced by cisplatin,[6]; mice pre-treated with HNK,decreased significantly
same,DPOAE amplitude changes,"[7]; mice pre-treated with HNK, cisplatin 15 mg/kg",less pronounced
same,OHC structure,"[8]; Cis 15 + HNK 20 mg/kg, up to the 40 kHz region, only sporadic loss of HCs",nearly intact OHC structure
same,maximum weight loss,[9]; cisplatin 15 mg/kg with honokiol,about 15%
same,animals lost,[9]; cisplatin 20 mg/kg with honokiol,20%
same,survival rate / animal loss,[9]; [12],significantly reduced; also recorded: improved significantly
same,weight loss,[9]; [12],significantly reduced; also recorded: largely improved
same,passage of the blood-brain barrier,[10],capable of passing the blood-brain barrier
same,passage of the blood-brain barrier,[10]; listed as HNK,can also cross the blood brain barrier; also recorded: permeable; also recorded: can pass through the blood-brain barrier
"N.N.[Cl][Pt][Cl] [cisplatin, reference compound]",loss of prostate cancer cells,[3]; cisplatin 50 μM or 100 μM,massive loss
same,reduction in cervical cancer cells,[4]; cisplatin 50 μM or 100 μM,mild reduction
same,loss of colon cancer cells,[5]; cisplatin 100 μM,massive loss
same,DPOAE amplitude at high frequencies,"[7]; mouse, in vivo",reduced
same,frequencies of apparent DPOAE amplitude drop,"[7]; mouse, in vivo",over 16 kHz
same,OHC organization and HC loss,"[8]; Cis 15 mg/kg, basal 1/3 of the cochlea (estimated over 22 kHz)",Significant disruption of OHC organization and HC loss
same,survival rate,"[9]; cisplatin 20 mg/kg, day 8",zero
